Test results published in patent US20220193030A1, “USE OF GINKGO TERPENE LACTONE IN PREPARING DRUG FOR PREVENTING AND/OR TREATING GUILLAIN-BARRE-STROHL SYNDROME” (CHENGDU BAIYU PHARMACEUTICAL CO., LTD., priority 2019, published 2022).
Marks after values point to notes of the source that are not given here.

Key:
IL-10 = assay: mRNA level of IL-10 in sciatic nerve tissue of EAN model rabbits (RT-PCR); assay type: in vivo, big-ear white rabbits; details: 14th day after modeling, ginkgolide groups 4.5 mg/kg intragastric 2 times a day, positive control 400 mg/kg·d i.p. 5 days
Procedure: (§1) 21 experimental groups, 8 rabbits in each group.
(§2) Positive control group: rabbit immune globulin, 400 mg/kg·d, intraperitoneal injection, for 5 consecutive days
(§3) The ginkgolide groups are set the same as Test example 1, i.e., include the ginkgolide A group to the ginkgolide K group (GA group to GK group), the bilobalide group (BB group) and the ginkgolide I group to the ginkgolide XI group, 18 groups in total. Ginkgolide used in each group has the same monomeric composition and ratio as those of Test example 1, but only differs in that the ginkgolide groups all use the same medicine administration dosage, i.e., 4.5 mg/kg.
(§4) Intragastric administration, 2 times a day. Medicines were dissolved in accessories (glycerin:ethanol=6:4 V/V) to reach 5 mg/ml, and then were configured to reach corresponding concentrations by using sterilized drinking water.
(§5) EAN rabbit modeling: a certain amount of bovine sciatic nerve myelin basic protein and an isopyknic complete Freund's adjuvant were taken, shaken up by using a test tube oscillator, sufficiently mixed, and then subcutaneously injected into a back of each rabbit at multiple points.
(§6) Anesthesia was performed on the 14th day after modeling, to take sciatic nerve tissue of rabbits, and total RNA was extracted by a Trizol method. Detection was performed by a RT-PCR method. (GBS is an autoimmune disease of a nervous system. In-vivo autoreactive T cells of a patient have a cellular immunologic response to myelin P2 antigens, to form a delayed allergic reaction peripheral nerve demyelination pathological injury. This process is mainly mediated by CD4^+T cells, also named initial Th cells that may be differentiated into Th1 and Th2 after antigenic stimulation. Th1 cytokines (represented by TNF-α and IL-12) mainly enhance a cell mediated immune response, and are inflammatory cytokines; and Th2 cytokines (represented by IL-4 and IL-10) mainly participate in an antibody mediated immune response, and have an immune down-regulation and anti-inflammation effect. In GBS and ENA research, unbalance of Th1/Th2 plays an important role in disease injuries.)
(§7) Data is represented by mean±standard deviation (x±SD). Differences between two groups were compared. When P is less than 0.05, a statistic difference occurs.

TNF-α = assay: mRNA level of TNF-α in sciatic nerve tissue of EAN model rabbits (RT-PCR); assay type: in vivo, big-ear white rabbits; details: 14th day after modeling, ginkgolide groups 4.5 mg/kg intragastric 2 times a day, positive control 400 mg/kg·d i.p. 5 days
Procedure: as §1, §2, §3, §4, §5, §6, §7

EAN model rats [1] = assay: Pre-experimental dose study: clinical score of neurological symptoms of EAN model rats; assay type: in vivo, Lewis rats; details: score 0-10
Procedure: Persons skilled in the art learn that, pharmacological effect and dose are in a proportional relationship, i.e., a dose-effect relationship, only within a certain range.
(§8) For each rat in an EAN model group, an inoculum was subcutaneously injected into foot pads of hind limbs on two sides, 200 μL/rat (100 μL per side). […] For the negative control group, isopyknic normal saline was injected. For each group of animals, medicine administration was started from the first day after immunization, for 30 days in total.
(§9) The day of molding serves as the 0th day, and after that is 30 days of observation period. Observation date is represented by D plus number, D1, D2 and D3 respectively represent Observation date 1, Observation date 2 and Observation date 3, and subsequent dates are represented in the same way. Rats were weighed once every two days, and clinical symptoms of all experimental animals were scored. Within one week of a peak period (D14-D20) of disease attack of animals, weighing and clinical symptom scoring were performed every day. Score standards are as below: 0, normal; 1, a soft tail; 2, unable to lift a tail; 3, unable to automatically correct a body position; 4, ataxia; 5, mild paralysis of hind limbs; 6, moderate paralysis of hind limbs; 7, severe paralysis of hind limbs; 8, paresis of four limbs; 9, severe paresis of four limbs; and 10, death.
(§10) Data is represented by mean±standard deviation (x±SD). For scores of symptoms and scores of algesia, a non-parametric test Mann-Whitney U was used to compare differences between two groups. When P is less than 0.05, a statistic difference occurs.

IL-4 = assay: mRNA level of IL-4 in sciatic nerve tissue of EAN model rabbits (RT-PCR); assay type: in vivo, big-ear white rabbits; details: 14th day after modeling, ginkgolide groups 4.5 mg/kg intragastric 2 times a day, positive control 400 mg/kg·d i.p. 5 days
Procedure: as §1, §2, §3, §4, §5, §6, §7

EAN model rats [2] = assay: Test on algesia of ankle joint (pain reaction score) of EAN model rats; assay type: in vivo, Lewis rats; details: ankle dorsiflexion, score 0-5
Procedure: as §4, §8
Near a peak period of disease attack of EAN model animals, a test on algesia of ankle joints was performed on EAN model animals and adjuvant control animals, and rats in a rest state were forced to bend hind legs towards foot soles (dorsiflexion). For each side, 5 tests were made, at an interval of at least 5 s. For each time of dorsiflexion, if rats screamed or obviously withdrew paws, 1 score was counted. For each side, a total score is 0-5.
as §10

IL-12 = assay: mRNA level of IL-12 in sciatic nerve tissue of EAN model rabbits (RT-PCR); assay type: in vivo, big-ear white rabbits; details: 14th day after modeling, ginkgolide groups 4.5 mg/kg intragastric 2 times a day, positive control 400 mg/kg·d i.p. 5 days
Procedure: as §1, §2, §3, §4, §5, §6, §7

EAN model rats [3] = assay: Scores of neurological symptoms (clinical score) of EAN model rats, Test Example 1; assay type: in vivo, Lewis rats; set-up: key: 0 = normal, 5 = mild hind-limb paralysis, 10 = death; details: monomers 4.5 mg/kg, combinations 6.0-13.5 mg/kg; for Clinical score D12: D12, intragastric 2 times a day; for Clinical score D14: D14, intragastric 2 times a day; for Clinical score D22: D22, intragastric 2 times a day; for Clinical score D24: D24, intragastric 2 times a day; for Clinical score D26: D26, intragastric 2 times a day; for Clinical score D20: D20, intragastric 2 times a day
Procedure: 20 experimental groups, 10 […] in each group.
as §4, §8, §9, §10

Compound	Cytokines IL-10 (mRNA level, sciatic nerve tissue) (IL-10)	Cytokines TNF-α (mRNA level, sciatic nerve tissue) (TNF-α)	Clinical score (D17) (EAN model rats [1]; 2.0 mg/kg)	Clinical score (D17) (EAN model rats [1]; 4.5 mg/kg)	Clinical score (D17) (EAN model rats [1]; 15 mg/kg)	Cytokines IL-4 (mRNA level, sciatic nerve tissue) (IL-4)	Pain reaction score (D18) (EAN model rats [2])	Cytokines IL-12 (mRNA level, sciatic nerve tissue) (IL-12)	Clinical score D12 (EAN model rats [3])	Clinical score D14 (EAN model rats [3])	Clinical score D22 (EAN model rats [3])	Clinical score D24 (EAN model rats [3])	Clinical score D26 (EAN model rats [3])	Clinical score D20 (EAN model rats [3])	Clinical score D16 (EAN model rats [3]; D16, intragastric 2 times a day)	Clinical score (D17) (EAN model rats [3]; D17, intragastric 2 times a day)	Clinical score D19 (EAN model rats [3]; D19, intragastric 2 times a day)
CC(C)(C)[C@]1(O)CC2OC(=O)CC23C(=O)OC2OC(=O)[C@H](O)C231 (stereo partly drawn) [Bilobalide, bilobalide]	0.783 ± 0.128	3.054 ± 0.182	5.70 ± 0.67	4.80 ± 0.63*^Δ	4.90 ± 0.88*^Δ	0.792 ± 0.065	2.9 ± 0.74	4.087 ± 0.275									
C[C@@H]1C(=O)O[C@H]2C[C@@]34[C@H]5C[C@@H](C(C)(C)C)[C@]36[C@@H](OC(=O)[C@@H]6O)O[C@@]4(C(=O)O5)[C@]21O [Ginkgolide A, ginkgolide A]	0.584 ± 0.039	4.693 ± 0.115	7.00 ± 0.82	6.10 ± 0.74*^Δ	6.00 ± 1.25*^Δ	0.569 ± 0.048	2.0 ± 0.67	5.977 ± 0.141	4.4 ± 0.5	5.3 ± 0.5	4.4 ± 0.5	3.7 ± 0.8	3.1 ± 0.6				
CC1C(=O)OC2C(O)C34C5CC(C(C)(C)C)C36C(OC(=O)C6O)OC4(C(=O)O5)C12O (stereo not drawn) [Ginkgolide B, ginkgolide B]	0.813 ± 0.055	2.978 ± 0.102	6.10 ± 1.10	5.10 ± 0.57*^Δ	5.20 ± 0.63*^Δ	0.769 ± 0.041	3.0 ± 0.67	3.928 ± 0.409									
CC1=C2[C@@H](OC1=O)[C@H](O)[C@]13[C@H]4C[C@@H](C(C)(C)C)[C@]15[C@@H](OC(=O)[C@@H]5O)O[C@@]23C(=O)O4 [Ginkgolide K, ginkgolide K]	0.524 ± 0.026	4.739 ± 0.094	7.20 ± 0.42	6.50 ± 0.85*^Δ	6.70 ± 0.82*^Δ	0.557 ± 0.046	1.2 ± 0.63	6.412 ± 0.169	4.5 ± 0.7	5.6 ± 0.5	4.5 ± 0.5	3.9 ± 0.7	3.1 ± 0.6	5.5 ± 0.5			
C[C@@H]1C(=O)O[C@@H]2[C@H]1[C@@]13OC4OC(=O)[C@H](O)C45[C@H](C(C)(C)C)[C@@H](O)C(OC1=O)[C@]53[C@H]2O (stereo partly drawn) [Ginkgolide M, ginkgolide M]	0.550 ± 0.061	4.797 ± 0.147	7.10 ± 0.32	6.40 ± 0.97*^Δ	6.50 ± 0.71*^Δ	0.558 ± 0.050	1.4 ± 0.52	6.260 ± 0.411	4.5 ± 0.7	5.6 ± 0.5	4.6 ± 0.5	4.0 ± 0.7	3.2 ± 0.6	5.5 ± 0.5			
ginkgolide C	0.561 ± 0.090	4.548 ± 0.154	6.90 ± 0.88	6.10 ± 0.57*^Δ	6.00 ± 0.67*^Δ	0.585 ± 0.053	1.9 ± 0.88	6.009 ± 0.357	4.4 ± 0.7	5.2 ± 0.8	4.4 ± 0.5	3.8 ± 0.8	3.1 ± 0.6				
ginkgolide J	0.501 ± 0.037	4.810 ± 0.070	7.10 ± 0.57	6.40 ± 0.84*^Δ	6.30 ± 0.82*^Δ	0.551 ± 0.050	1.3 ± 0.67	6.211 ± 0.489	4.4 ± 0.7	5.5 ± 0.5	4.6 ± 0.5	4.0 ± 0.7	3.2 ± 0.6	5.6 ± 0.5	6.5 ± 0.5	7.4 ± 0.5	6.2 ± 0.6
